# Measurements published in US12077503B2, “Substituted cyclic amides and their use as herbicides” (FMC CORPORATION, priority 2015, dated 2024).
# Columns and labels:
# Format in all cases: in vivo
# Kochia (Kochia scoparia) [1] = assay: Test A preemergence; details: Bassia scoparia, pre-emergence, 240 h, 0 to 100 scale (0 no effect, 100 complete control), read-out: Plant response rating, Kochia
# Procedure, shortened: (§1)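 In a loam soil and sand blend, planted seeds got a preemergence directed soil spray, and young plants at the one- to two-leaf stage, 2–10 cm high, got a postemergence application; ~10 d greenhouse hold; injury rated visually, 0 = none, 100 = complete control.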
# [2] = test system: Galium (catchweed bedstraw, Galium aparine); assay: Test A postemergence; details: Galium, post-emergence, 240 h, Postemergence
# Procedure, shortened: as §1
# Kochia (Kochia scoparia) [3] = assay: Test A postemergence; details: Bassia scoparia, post-emergence, 240 h, Postemergence
# Procedure, shortened: as §1
# [4] = test system: barnyardgrass (Echinochloa crus-galli); assay: Test A postemergence; details: Echinochloa crus-galli, post-emergence, 240 h, Postemergence
# Procedure, shortened: as §1
# [5] = test system: blackgrass (Alopecurus myosuroides); assay: Test A postemergence; details: Alopecurus myosuroides, post-emergence, 240 h, Postemergence
# Procedure, shortened: as §1
# corn (Zea mays) = assay: Test A postemergence; details: Zea mays, post-emergence, 240 h, Postemergence
# Procedure, shortened: as §1
# [6] = test system: giant foxtail (Setaria faberii); assay: Test A postemergence; details: Setaria faberi, post-emergence, 240 h, Postemergence
# Procedure, shortened: as §1
# [7] = test system: pigweed (Amaranthus retroflexus); assay: Test A postemergence; details: Amaranthus retroflexus, post-emergence, 240 h, Postemergence
# Procedure, shortened: as §1
# [8] = test system: ragweed (common ragweed, Ambrosia elatior); assay: Test A postemergence; details: Ambrosia artemisiifolia, post-emergence, 240 h, Postemergence
# Procedure, shortened: as §1
# [9] = test system: ryegrass, Italian (Italian ryegrass, Lolium multiflorum); assay: Test A postemergence; details: Lolium multiflorum, post-emergence, 240 h, Postemergence
# Procedure, shortened: as §1
# [10] = test system: wheat (Triticum aestivum); assay: Test A postemergence; details: Triticum aestivum, post-emergence, 240 h, Postemergence
# Procedure, shortened: as §1
# [11] = test system: barnyardgrass (Echinochloa crus-galli); assay: Test B flooded paddy test; details: Echinochloa crus-galli, 360 h, Flood, 250 g ai/ha; visually evaluated after 13 to 15 d; read-out: Plant response rating, Barnyardgrass (0 to 100 scale where 0 is no effect and 100 is complete control)
# Procedure, shortened: (§2)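 Evaluation by eye, against controls, occurred 13–15 d post-treatment in a greenhouse, using a 0 (no effect) to 100 (complete control) scale. Application was into the paddy water, 3 cm deep over the soil, on 2-leaf plants.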
# [12] = test system: ducksalad (Heteranthera limosa); assay: Test B flooded paddy test; details: Heteranthera limosa, 360 h, Flood, 250 g ai/ha; visually evaluated after 13 to 15 d; read-out: Plant response rating, Ducksalad (0 to 100 scale where 0 is no effect and 100 is complete control)
# Procedure, shortened: as §2
# rice (Oryra sativa) = assay: Test B flooded paddy test; details: Oryza sativa, 360 h, Flood, 250 g ai/ha; visually evaluated after 13 to 15 d; read-out: Plant response rating, Rice (0 to 100 scale where 0 is no effect and 100 is complete control)
# Procedure, shortened: as §2
# [13] = test system: sedge, umbrella (small-flower umbrella sedge, Cyperus difformis); assay: Test B flooded paddy test; details: Cyperus difformis, 360 h, Flood, 250 g ai/ha; visually evaluated after 13 to 15 d; read-out: Plant response rating, Sedge, Umbrella (0 to 100 scale where 0 is no effect and 100 is complete control)
# Procedure, shortened: as §2
structure (smiles),measurement,setting,value
N#Cc1cc([C@H]2CNC(=O)[C@]2(O)C(=O)Nc2cccc(F)c2F)ccc1F [Compound 1374],pest or weed control at 500 g/ha,"Kochia (Kochia scoparia) [1]; 500 g ai/ha, preemergence",0%
same,pest or weed control at 125 g/ha,"Kochia (Kochia scoparia) [1]; Preemergence, 125 g ai/ha",0%
same,pest or weed control at 125 g/ha,"[2]; 125 g ai/ha, visual rating about 10 d after treatment, read-out: Galium plant response rating (0 to 100 scale)",0%
same,pest or weed control at 500 g/ha,"[2]; 500 g ai/ha, visual injury, 0 to 100 scale (0 no effect, 100 complete control), approx. 10 d, read-out: Plant response rating, Galium",0%
same,pest or weed control at 125 g/ha,"Kochia (Kochia scoparia) [3]; 125 g ai/ha, visual rating about 10 d after treatment, read-out: Kochia plant response rating (0 to 100 scale)",0%
same,pest or weed control at 500 g/ha,"Kochia (Kochia scoparia) [3]; 500 g ai/ha, visual injury, 0 to 100 scale (0 no effect, 100 complete control), approx. 10 d, read-out: Plant response rating, Kochia",0%
same,pest or weed control at 125 g/ha,"[4]; 125 g ai/ha, visual rating about 10 d after treatment, read-out: Barnyardgrass plant response rating (0 to 100 scale, 0 no effect, 100 complete control)",0%
same,pest or weed control at 500 g/ha,"[4]; 500 g ai/ha, visual injury, 0 to 100 scale (0 no effect, 100 complete control), approx. 10 d, read-out: Plant response rating, Barnyardgrass",50%
same,pest or weed control at 125 g/ha,"[5]; 125 g ai/ha, visual rating about 10 d after treatment, read-out: Blackgrass plant response rating (0 to 100 scale)",0%
same,pest or weed control at 500 g/ha,"[5]; 500 g ai/ha, visual injury, 0 to 100 scale (0 no effect, 100 complete control), approx. 10 d, read-out: Plant response rating, Blackgrass",0%
same,plant injury at 125 g/ha,"corn (Zea mays); 125 g ai/ha, visual rating about 10 d after treatment, read-out: Corn plant response rating (0 to 100 scale)",0%
same,"Corn plant response rating (crop injury, 0 = no effect, 100 = complete kill) at 500 g/ha","corn (Zea mays); 500 g ai/ha, visual injury, 0 to 100 scale (0 no effect, 100 complete control), approx. 10 d",0%
same,pest or weed control at 125 g/ha,"[6]; 125 g ai/ha, visual rating about 10 d after treatment, read-out: Foxtail, Giant plant response rating (0 to 100 scale)",0%
same,pest or weed control at 500 g/ha,"[6]; 500 g ai/ha, visual injury, 0 to 100 scale (0 no effect, 100 complete control), approx. 10 d, read-out: Plant response rating, Foxtail, Giant",0%
same,pest or weed control at 125 g/ha,"[7]; 125 g ai/ha, visual rating about 10 d after treatment, read-out: Pigweed plant response rating (0 to 100 scale)",0%
same,pest or weed control at 500 g/ha,"[7]; 500 g ai/ha, visual injury, 0 to 100 scale (0 no effect, 100 complete control), approx. 10 d, read-out: Plant response rating, Pigweed",0%
same,pest or weed control at 125 g/ha,"[8]; 125 g ai/ha, visual rating about 10 d after treatment, read-out: Ragweed plant response rating (0 to 100 scale)",0%
same,pest or weed control at 500 g/ha,"[8]; 500 g ai/ha, visual injury, 0 to 100 scale (0 no effect, 100 complete control), approx. 10 d, read-out: Plant response rating, Ragweed",0%
same,pest or weed control at 125 g/ha,"[9]; 125 g ai/ha, visual rating about 10 d after treatment, read-out: Ryegrass, Italian plant response rating (0 to 100 scale)",0%
same,pest or weed control at 500 g/ha,"[9]; 500 g ai/ha, visual injury, 0 to 100 scale (0 no effect, 100 complete control), approx. 10 d, read-out: Plant response rating, Ryegrass, Italian",0%
same,plant injury at 125 g/ha,"[10]; 125 g ai/ha, visual rating about 10 d after treatment, read-out: Wheat plant response rating (0 to 100 scale)",0%
same,plant injury at 500 g/ha,"[10]; 500 g ai/ha, visual injury, 0 to 100 scale (0 no effect, 100 complete control), approx. 10 d, read-out: Plant response rating, Wheat",0%
same,pest or weed control at 250 g/ha,[11],0%
same,pest or weed control at 250 g/ha,[12],0%
same,pest or weed control at 250 g/ha,rice (Oryra sativa),20%
same,pest or weed control at 250 g/ha,[13],0%
